The target of one assay is T1, Human LPA1 (Homo sapiens, UniProt Q92633).
T1 construct: the full-length cDNA for human LPA1 was obtained by PCR of the reverse transcription reaction; expressed in transfected cells
As to the kind of experiment: LPA1 calcium flux assay. The format is cell-based. Conditions: CHO cells expressing human LPA1, stimulated with 10 nM LPA; read-out: LPA1 Ca^2+ flux. The procedure:
A 1.1 kb cDNA encoding the human LPA1 receptor was cloned from human lung. Human lung RNA (Clontech Laboratories, Inc. USA) was reverse transcribed using the RETROSCRIPT® kit (Ambion, Inc.) and the full-length cDNA for human LPA1 was obtained by PCR of the reverse transcription reaction. The nucleotide sequence of the cloned human LPA1 was determined by sequencing and confirmed to be identical to the published human LPA1 sequence (An et al., Biochem. Biophys. Res. Commun. 231:619 (1997). The cDNA was cloned into the pcDNA5/FRT expression plasmid and transfected in CHO cells using Lipofectamine 2000 (Invitrogen Corp., USA). Clones stably expressing human LPA1 were selected using hygromycin and identified as cells that show Ca-influx in response to LPA.
Human LPA1 or LPA3 expressing CHO cells are seeded at 20,000-45,000 cells per well in a 96-well poly-D-lysine coated plate one or two days before the assay. Prior to the assay, the cells are washed once with PBS and then cultured in serum-free media overnight. On the day of the assay, a calcium indicator dye (Calcium 4, Molecular Devices) in assay buffer (HBSS with Ca^2+ and Mg^2+ and containing 20 mM Hepes and 0.3% fatty-acid free human serum albumin) is added to each well and incubation continued for 1 hour at 37° C. 10 μl of test compounds in 2.5% DMSO are added to the cells and incubation continued at room temperature for 30 minutes. Cells are the stimulated by the addition of 10 nM LPA and intracellular Ca^2+ measured using the FLEXSTATION® 3 (Molecular Devices). IC50s are determined using Graphpad prism analysis of drug titration curves.
Background: A change in cytosolic calcium serves as a functional read-out for many receptors and channels.

The test system of assay [1] is mouse bleomycin lung fibrosis model. In words: Bleomycin-induced lung fibrosis model in mice. The format is in vivo. The text has this:
Female C57Bl/6 mice (Harlan, 25-30 g) are housed 4 per cage, given free access to food and water and allowed to acclimate for at least 7 days prior to test initiation. After the habituation phase, mice are lightly anesthetized with isoflurane (5% in 100% O2) and administered with bleomycin sulfate (0.01-5 U/kg, Henry Schein) via intratracheal instillation (Cuzzocrea, S et al., Am. J. Physiol. Lung Cell Mol. Physiol., 292(5):L1095-104 (May 2007) (Epub Jan. 12, 2007). Mice are returned to their cages and monitored daily for the duration of the experiment. Test compound or vehicle is delivered po, ip or sc daily. The route and frequency of dosing is based on previously determined pharmacokinetic properties. All animals are sacrificed using inhaled isoflurane 3, 7, 14, 21 or 28 days after bleomycin instillation. Following sacrifice, mice are intubated with a 20 gauge angiocatheter attached to a 1 ml syringe. Lungs are lavaged with saline to obtain bronchoalveolar lavage fluid (BALF) and then removed and fixed in 10% neutral buffered formalin for subsequent histopathological analysis. BALF is centrifuged for 10 min at 800×g to pellet the cells and the cell supernatant removed and frozen at −80° C. for subsequent protein analysis using the DC protein assay kit (Biorad, Hercules, Calif.) and soluble collagen analysis using Sircol (Biocolor Ltd, UK). BALF is analyzed for concentrations of inflammatory, pro-fibrotic and tissue injury biomarkers including transforming growth factor β1, hyaluronic acid, tissue inhibitor of metalloproteinase-1, matrix matelloproteinase-7, connective tissue growth factor and lactate dehydrogenase activity, using commercially available ELISA. The cell pellet is re-suspended in PBS. Total cell counts are then obtained using a HEMAVET® hematology system (Drew Scientific, Wayne, Pa.) and differential cells counts are determined using Shandon cytospin (Thermo Scientific, Waltham, Mass.). Lung tissue is stained using hematoxylin and eosin (H&E) and trichrome and lung fibrosis is determined by semiquantitative histopathological scoring (Ashcroft T. et al., J. Clin. Path., 41(4):467-470 (1988)) using light microscopy (10× magnification) and quantitative, computer-assisted densitometry of collagen in lung tissue sections using light microscopy. The data are plotted using Graphpad prism and statistical differences between groups determined

In a further assay the test system is nerve-injured mice. Conditions: pretreatment; cited from earlier work.
Another assay relates to UUO mice. Conditions: compared with LPA1 (−/−) mice; cited from earlier work.
Assay [2] deals with pancreatic cancer cell lines. Conditions: cited from earlier work.
Assay [3] has as its system human foetal lung fibroblasts. The note with it: cited from earlier work.
The test system of assay [4] is highly peritoneal metastatic pancreatic cancer cell line. The note with it: cited from earlier work.
Assay [5] deals with mouse epithelial renal cell line, MCT. Conditions: co-treatment with LPA, MCT cells; cited from earlier work.
The subject of another assay is bone metastasis. The note with it: in vivo; cited from earlier work.
In another assay the target is T2, LPA3 receptor (Mus musculus, UniProt Q9EQ31).
T2 construct: host or cells: mouse kidney in vivo
T2 sequence (Q9EQ31 1-354): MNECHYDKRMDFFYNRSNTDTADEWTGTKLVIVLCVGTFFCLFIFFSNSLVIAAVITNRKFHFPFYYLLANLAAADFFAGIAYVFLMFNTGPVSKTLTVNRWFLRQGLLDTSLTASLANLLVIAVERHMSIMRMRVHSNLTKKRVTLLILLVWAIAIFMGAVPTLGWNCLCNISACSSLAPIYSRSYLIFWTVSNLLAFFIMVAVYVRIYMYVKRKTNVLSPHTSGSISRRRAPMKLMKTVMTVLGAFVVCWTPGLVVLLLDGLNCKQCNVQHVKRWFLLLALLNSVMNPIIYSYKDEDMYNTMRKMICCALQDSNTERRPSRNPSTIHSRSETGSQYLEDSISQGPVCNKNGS
Conditions: in the presence of the agonist; cited from earlier work.

Where [6] appears, read: multiple timepoints following intratracheal bleomycin instillation.

pIC50: −log10 of the molar value.

T1 sequence (Q92633 whole entry): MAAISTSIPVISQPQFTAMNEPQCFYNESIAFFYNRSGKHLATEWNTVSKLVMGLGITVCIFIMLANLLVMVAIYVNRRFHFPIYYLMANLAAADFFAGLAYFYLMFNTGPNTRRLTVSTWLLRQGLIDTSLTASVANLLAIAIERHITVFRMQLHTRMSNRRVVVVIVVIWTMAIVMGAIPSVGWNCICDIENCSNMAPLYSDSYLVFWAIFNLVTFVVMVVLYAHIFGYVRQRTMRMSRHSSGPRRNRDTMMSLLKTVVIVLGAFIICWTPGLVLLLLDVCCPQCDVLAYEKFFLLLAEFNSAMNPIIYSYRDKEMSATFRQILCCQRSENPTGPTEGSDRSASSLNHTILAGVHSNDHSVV

Take `CC(OC(=O)Nc1ccncc1-c1ccc(-c2ccc(C3(C(=O)O)CC3)cc2)cc1)c1ccccc1Cl` (centres unmarked) [Compound 1-1, 1-(4′-{4-[1-(2-chloro-phenyl)-ethoxycarbonylamino]-pyridin-3-yl}-biphenyl-4-yl)-cyclopropanecarboxylic acid]: on Human LPA1, the pIC50 is > 6.52. Besides, in assay [1] (acute setting (3 day)), the “BALF MMP-7” value is reported as “reduced”, the “BALF TGFβ1” value is “reduced”, the BALF collagen result is “reduced” and the BALF hyaluronan result is “reduced”. Further, in [1] (acute setting (3 day)), the “BALF inflammatory cell influx” value is on record as “reduced” and the BALF protein entry was “reduced”. In addition, in [1] (setting [6]), the fibrosis entry is given as “reduced”, the inflammation entry is given as “reduced”, the lung injury entry is “reduced” and the vascular leakage entry is “reduced”.
As for `C[C@@H](N)[C@H]1CC[C@H](C(=O)Nc2ccncc2)CC1` [Compound Y-27632], the allodynia and hyperalgesia entry in the assay with nerve-injured mice is listed as “completely abolished”.
Regarding `Cc1noc(-c2ccc(CSCCC(=O)O)cc2)c1NC(=O)OC(C)c1ccccc1Cl` (centres unmarked) [Ki16425], in the assay with UUO mice, the “development of renal fibrosis” value is on record as “closely resembled the LPA1 (−/−) mice”. Moreover, the “in vitro migration in response to LPA and peritoneal fluid (ascites) from pancreatic cancer patients” value in assay [2] was “effectively blocked”. Besides, in assay [3], the “chemotaxis of human foetal lung fibroblasts induced by BAL from IPF patients” value is listed as “blocked” and the “increased fibroblast chemotactic activity in bronchoalveolar lavage samples of human subjects with IPF” value is given as “inhibited”. Also, in assay [4], the “LPA-induced and ascites-induced invasion activity” value is listed as “blocked”. The “LPA-induced expression of the profibrotic cytokine CTGF” value in [5] was “almost completely suppressed”. Further, the metastasis to bone result with bone metastasis is reported as “inhibit metastasis to bone”.
For the molecule `CCCCCCCC/C=C\CCCCCCCC(=O)OC[C@@H](COP(O)(O)=S)OC` [OMPT], the “reduction of severity of injury by blockade of the LPA3 receptor” value at LPA3 receptor is “reversed”.

The values above are taken from patent US9272990B2, “Lysophosphatidic acid receptor antagonists and their use in the treatment fibrosis” (AMIRA PHARMACEUTICALS, INC., priority 2010, dated 2016).
